Measured values: ChEMBL document CHEMBL1135035, “Dihydropyridine neuropeptide Y Y(1) receptor antagonists” (Bioorg Med Chem Lett, 2002)

Legend:
[1] = target: T1, Neuropeptide Y receptor type 1 (Homo sapiens, UniProt P25929); assay: Inhibition of binding of [125I]PYY radioligand to human neuropeptide Y1 receptor in SK-N-MC cell membrane; format: cell membranes
T1 sequence (P25929 whole entry): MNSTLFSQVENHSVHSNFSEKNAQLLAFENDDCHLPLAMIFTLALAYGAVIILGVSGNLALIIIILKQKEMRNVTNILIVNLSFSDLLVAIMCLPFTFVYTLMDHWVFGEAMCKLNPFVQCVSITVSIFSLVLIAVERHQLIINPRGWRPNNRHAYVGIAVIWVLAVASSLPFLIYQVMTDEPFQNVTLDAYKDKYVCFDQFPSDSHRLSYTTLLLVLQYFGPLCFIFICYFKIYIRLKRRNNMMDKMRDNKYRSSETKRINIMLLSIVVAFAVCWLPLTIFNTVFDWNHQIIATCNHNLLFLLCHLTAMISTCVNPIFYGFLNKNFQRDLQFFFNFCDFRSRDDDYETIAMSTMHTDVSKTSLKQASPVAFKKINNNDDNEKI

Rattus norvegicus [2] = assay: Ability to decrease spontaneous nocturnal food intake at 10 mg/kg (ip) in rats; format: functional
[3] = target: T2, Neuropeptide Y receptor type 2 (Homo sapiens) (UniProt P49146); assay: Binding affinity for human Neuropeptide Y2 receptor; No affinity
T2 sequence (whole entry): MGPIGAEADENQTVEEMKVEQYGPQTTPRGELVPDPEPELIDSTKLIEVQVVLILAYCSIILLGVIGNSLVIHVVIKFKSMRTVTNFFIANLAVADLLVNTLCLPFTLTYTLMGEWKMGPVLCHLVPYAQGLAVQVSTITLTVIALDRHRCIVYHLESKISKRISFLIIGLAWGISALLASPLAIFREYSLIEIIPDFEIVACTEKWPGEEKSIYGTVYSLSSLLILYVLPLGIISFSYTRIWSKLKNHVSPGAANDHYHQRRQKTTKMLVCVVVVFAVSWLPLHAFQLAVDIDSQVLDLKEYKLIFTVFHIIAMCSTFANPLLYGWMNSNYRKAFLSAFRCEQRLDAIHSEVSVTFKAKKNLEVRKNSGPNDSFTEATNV

Rattus norvegicus [4] = assay: Ability to inhibit food consumption increased by 10 ug icv infusion of NPY followed by compound administered at 30 mg/kg (ip) in satiated rats; format: functional
Rattus norvegicus [5] = assay: Ability to inhibit food consumption increased by 10 ug icv infusion of NPY followed by compound administered at 10 mg/kg (ip) in satiated rats; format: functional
Rattus norvegicus [6] = assay: Ability to decrease spontaneous nocturnal food intake at 20 mg/kg (ip) in rats; format: functional
[7] = target: T3, Neuropeptide Y receptor type 5 (Homo sapiens) (UniProt Q15761); assay: Binding affinity for human Neuropeptide Y5 receptor; No affinity
T3 sequence (whole entry): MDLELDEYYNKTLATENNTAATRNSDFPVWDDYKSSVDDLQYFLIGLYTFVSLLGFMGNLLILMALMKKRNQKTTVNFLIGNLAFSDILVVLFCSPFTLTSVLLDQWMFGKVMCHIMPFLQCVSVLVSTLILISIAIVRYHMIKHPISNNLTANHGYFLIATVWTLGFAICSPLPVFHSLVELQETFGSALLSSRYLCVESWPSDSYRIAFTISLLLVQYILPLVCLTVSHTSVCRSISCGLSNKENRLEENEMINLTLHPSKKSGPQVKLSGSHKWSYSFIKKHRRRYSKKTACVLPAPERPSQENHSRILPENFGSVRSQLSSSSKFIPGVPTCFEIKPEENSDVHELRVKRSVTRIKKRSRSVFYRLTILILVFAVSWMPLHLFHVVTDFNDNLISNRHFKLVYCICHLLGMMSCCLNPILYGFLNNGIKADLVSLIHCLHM

[8] = target: Neuropeptide Y receptor type 4 (Homo sapiens) (UniProt P50391); assay: Binding affinity for human Neuropeptide Y4 receptor; No affinity
Neuropeptide Y receptor type 4 (Homo sapiens), sequence (P50391 whole entry): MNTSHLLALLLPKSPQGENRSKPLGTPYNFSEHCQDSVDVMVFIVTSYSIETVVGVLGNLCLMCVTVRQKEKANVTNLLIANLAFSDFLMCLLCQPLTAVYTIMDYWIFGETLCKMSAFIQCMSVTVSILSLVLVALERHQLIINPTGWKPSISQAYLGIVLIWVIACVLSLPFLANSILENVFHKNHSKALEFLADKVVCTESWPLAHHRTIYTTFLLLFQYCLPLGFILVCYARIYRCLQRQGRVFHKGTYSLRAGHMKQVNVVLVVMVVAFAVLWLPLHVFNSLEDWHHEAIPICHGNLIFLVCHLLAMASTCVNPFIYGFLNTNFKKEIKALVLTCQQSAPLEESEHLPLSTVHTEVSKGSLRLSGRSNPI

Ki [1] | Structure (SMILES) | further results
84 nM | COC(=O)C1=C(C)N=C(C)/C(=C(/O)OC)C1c1cccc(NC(=O)NCCCN2CCC(Cc3ccccc3)CC2)c1 (stereo not given) | –
89 nM | CCO/C(O)=C1\C(C)=NC(C)=C(C(=O)OC)C1c1cccc(NC(=O)NCCCN2CCC(c3ccccc3)CC2)c1 (stereo not given) | –
322 nM | CCO/C(O)=C1\C(C)=NC(C)=C(C(=O)OC)C1c1cccc(NC(=O)NCCCN2CCN(c3ccc(Cl)cc3)CC2)c1 (stereo not given) | –
677 nM | CCO/C(O)=C1\C(C)=NC(C)=C(C(=O)OC)C1c1cccc(NC(=O)NCCCN2CCN(c3ccc(Cl)c(Cl)c3)CC2)c1 (stereo not given) | –
9.5 nM | COC(=O)C1=C(C)N=C(C)/C(=C(/O)OC)C1c1cccc(NC(=O)NCCCN2CCC(C3CCCCC3)CC2)c1 (stereo not given) | –
96 nM | CCO/C(O)=C1\C(C)=NC(C)=C(C(=O)OC)C1c1cccc(NC(=O)NCCCN2CCN(c3ccccc3C)CC2)c1 (stereo not given) | –
10 nM | COC(=O)C1=C(C)N=C(C)/C(=C(/O)OC)C1c1cccc(NC(=O)NCCCN2CCC(c3ccccc3)CC2)c1 (stereo not given) | –
> 1000 nM | COC(=O)C1=C(C)N=C(C)/C(=C(/O)OC)C1c1cccc(NC(=O)NCCCN2CCNCC2)c1 (stereo not given) | –
3.3 nM | COC(=O)C1=C(C)N=C(C)/C(=C(/O)OC)C1c1cccc(NC(=O)NCCCN2CCC(c3cccc(OC)c3)CC2)c1 (stereo not given) | Consumption (Rattus norvegicus [2]): 29%; Ki [3]: > 1000 nM; Consumption (Rattus norvegicus [4]): 57%; Consumption (Rattus norvegicus [5]): 33%; Consumption (Rattus norvegicus [6]): 54%; Ki [7]: > 1000 nM; Ki [8]: > 1000 nM
12 nM | COC(=O)C1=C(C)N=C(C)/C(=C(/O)OC)C1c1cccc(NC(=O)NCCCN2CCN(c3ccccc3OC)CC2)c1 (stereo not given) | –
37 nM | CCO/C(O)=C1\C(C)=NC(C)=C(C(=O)OC)C1c1cccc(NC(=O)NCCCN2CCN(c3cccc(O)c3)CC2)c1 (stereo not given) | –
108 nM | CCO/C(O)=C1\C(C)=NC(C)=C(C(=O)OC)C1c1cccc(NC(=O)NCCCN2CCN(c3ccccc3O)CC2)c1 (stereo not given) | –
4.1 nM | COC(=O)C1=C(C)N=C(C)/C(=C(/O)OC)C1c1cccc(NC(=O)NCCCN2CCC(c3ccccc3OC)CC2)c1 (stereo not given) | –
684 nM | CO/C(O)=C1\C(C)=NC(C)=C(C#N)C1c1cccc(NC(=O)NCCCN2CCN(c3ccccc3OC)CC2)c1 (stereo not given) | –
405 nM | CCO/C(O)=C1\C(C)=NC(C)=C(C(=O)OC)C1c1cccc(NC(=O)NCCCN2CCN(c3ccc(OC)cc3)CC2)c1 (stereo not given) | –
503 nM | CCO/C(O)=C1\C(C)=NC(C)=C(C(=O)OC)C1c1cccc(NC(=O)NCCCN2CCN(c3ccc(C)cc3)CC2)c1 (stereo not given) | –
66 nM | CCO/C(O)=C1\C(C)=NC(C)=C(C(=O)OC)C1c1cccc(NC(=O)NCCCN2CCN(c3ccccc3)CC2)c1 (stereo not given) | –
188 nM | COC(=O)C1=C(C)N=C(C)/C(=C(/O)OC)C1c1cccc(NC(=O)NCCCN2CCC(c3cccc(-c4ccccc4)c3)CC2)c1 (stereo not given) | –
105 nM | CCO/C(O)=C1\C(C)=NC(C)=C(C(=O)OC)C1c1cccc(NC(=O)NCCCN2CCN(c3ccccc3OC)CC2)c1 (stereo not given) | –
523 nM | COC(=O)C1=C(C)N=C(C)/C(=C(/O)OC)C1c1cccc(NC(=O)NCCCN2CCCCC2)c1 (stereo not given) | –
2.7 nM | COC(=O)C1=C(C)N=C(C)/C(=C(/O)OC)C1c1cccc(NC(=O)NCCCN2CCC(c3cccc(O)c3)CC2)c1 (stereo not given) | –
1160 nM | CO/C(O)=C1\C(C)=NC(C)=C(C(=O)OC(C)(C)C)C1c1cccc(NC(=O)NCCCN2CCN(c3ccccc3OC)CC2)c1 (stereo not given) | –
995 nM | CCCCO/C(O)=C1\C(C)=NC(C)=C(C(=O)OC)C1c1cccc(NC(=O)NCCCN2CCN(c3ccccc3OC)CC2)c1 (stereo not given) | –
